According to ChEMBL document CHEMBL1201862, “PubChem BioAssay data set” (2004):
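96-well plates; 48 h exposure; 5 concentrations. Endpoints by linear interpolation between flanking doses. Not reached: highest tested concentration assigned. Here, GI50 denotes the concentration required for 50% inhibition of growth.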 Active and inactive are the calls of the source. Cut-off read from the data, not from the text of the source: active = GI50 up to about 1.1 µM and inactive = higher.

Legend:
Experiment in all cases: NCI anticancer screen, dose series, 48 h
A498 = system: A498
A549 = system: A549
CAKI-1 = system: CAKI-1
CCRF-CEM = system: CCRF-CEM
DU-145 = system: DU-145
HL-60 = system: HL-60
HT-29 = system: HT-29
MCF7 = system: MCF7
MDA-MB-435 = system: MDA-MB-435
Malme-3M = system: Malme-3M
OVCAR-3 = system: OVCAR-3
OVCAR-4 = system: OVCAR-4
PC-3 = system: PC-3
RXF 393 = system: RXF 393
SF-295 = system: SF-295
SK-MEL-2 = system: SK-MEL-2
SNB-75 = system: SNB-75
SW-620 = system: SW-620
TK-10 = system: TK-10
U-251 = system: U-251

SMILES	GI50 (A498)	GI50 (A549)	GI50 (CAKI-1)	GI50 (CCRF-CEM)	GI50 (DU-145)	GI50 (HL-60)	GI50 (HT-29)	GI50 (MCF7)	GI50 (MDA-MB-435)	GI50 (Malme-3M)	GI50 (OVCAR-3)	GI50 (OVCAR-4)	GI50 (PC-3)	GI50 (RXF 393)	GI50 (SF-295)	GI50 (SK-MEL-2)	GI50 (SNB-75)	GI50 (SW-620)	GI50 (TK-10)	GI50 (U-251)
CC(=O)[O-].[Zn+].c1ccc(/C(=N\Nc2ccccn2)c2ccccn2)cc1	1.74 µM (inactive)	0.344 µM (active)	0.119 µM (active)	0.00277 µM (active)	0.458 µM (active)	0.00121 µM (active)	0.01 µM (active)	0.000912 µM (active)	0.408 µM (active)	0.124 µM (active)	0.0015 µM (active)	0.603 µM (active)	0.03 µM (active)	0.3 µM (active)	0.348 µM (active)	1.33 µM (inactive)	0.914 µM (active)	0.0676 µM (active)	0.44 µM (active)	0.281 µM (active)
Cc1[nH]c2c(c1Cc1ccccc1)C1=NC=C(O)NN1C=N2	> 100 µM (inactive)	> 100 µM (inactive)	> 100 µM (inactive)	20.5 µM (inactive)	> 100 µM (inactive)	> 100 µM (inactive)	80 µM (inactive)	14.9 µM (inactive)	> 100 µM (inactive)	> 100 µM (inactive)	60.4 µM (inactive)	> 100 µM (inactive)	82.2 µM (inactive)	16.6 µM (inactive)	62.4 µM (inactive)	> 100 µM (inactive)	10.3 µM (inactive)	21.5 µM (inactive)	74.1 µM (inactive)	70.1 µM (inactive)
CN(CCCNC(=O)c1n[nH]c2c1ccc1ccccc12)CCCNC(=O)c1n[nH]c2c1ccc1ccccc12	17.8 µM (inactive)	19.3 µM (inactive)	16.8 µM (inactive)	11.1 µM (inactive)	15.7 µM (inactive)	1.67 µM (inactive)	14.6 µM (inactive)	15 µM (inactive)	2.62 µM (inactive)	10.3 µM (inactive)	13.8 µM (inactive)	17.3 µM (inactive)	14.7 µM (inactive)	14.4 µM (inactive)	17.3 µM (inactive)	10.6 µM (inactive)	16.3 µM (inactive)	16.3 µM (inactive)	17.9 µM (inactive)	14.8 µM (inactive)
CCCC(=O)O[C@H]1C=C2C[C@@]34SS[C@]5(CC6=C[C@H](OC(C)=O)[C@@H]7O[C@@H]7[C@H]6N5C3=O)C(=O)N4[C@@H]2[C@H]2O[C@H]21	0.0279 µM (active)	0.0311 µM (active)	0.0175 µM (active)	0.0116 µM (active)	0.0356 µM (active)	0.0644 µM (active)	0.00569 µM (active)	0.0132 µM (active)	0.0127 µM (active)	0.02 µM (active)	0.00738 µM (active)	0.0197 µM (active)	0.0199 µM (active)	0.0205 µM (active)	0.329 µM (active)	0.0552 µM (active)	0.0353 µM (active)	0.00548 µM (active)	0.0347 µM (active)	0.00822 µM (active)
CN1CCN(Cc2nc3cccc4c3c([n+]2[O-])-c2ccccc2-4)CC1	15.8 µM (inactive)	14.8 µM (inactive)	25.5 µM (inactive)	25.9 µM (inactive)	14.9 µM (inactive)	33.1 µM (inactive)	12.4 µM (inactive)	12.8 µM (inactive)	15.6 µM (inactive)	20.1 µM (inactive)	37.8 µM (inactive)	25.2 µM (inactive)	11.4 µM (inactive)	10.8 µM (inactive)	41 µM (inactive)	23.1 µM (inactive)	33 µM (inactive)	22.8 µM (inactive)	43.5 µM (inactive)	20 µM (inactive)
O=C1c2cccnc2-c2nccc3ccnc1c23	5 µM (inactive)	1.6 µM (inactive)	0.116 µM (active)	0.0309 µM (active)	0.966 µM (active)	0.0248 µM (active)	0.575 µM (active)	0.24 µM (active)	0.219 µM (active)	0.853 µM (active)	0.343 µM (active)	1.91 µM (inactive)	1.36 µM (inactive)	1.13 µM (inactive)	1.29 µM (inactive)	2.16 µM (inactive)	1.08 µM (active)	0.474 µM (active)	1.7 µM (inactive)	1.05 µM (active)
Cc1c2cc[n+](C)cc2c(C)c2c1[nH]c1ccc(Cl)cc12	0.282 µM (active)	0.197 µM (active)	1.85 µM (inactive)	0.802 µM (active)	2.3 µM (inactive)	1.94 µM (inactive)	3.34 µM (inactive)	2.59 µM (inactive)	5.98 µM (inactive)	1.74 µM (inactive)	2.07 µM (inactive)	3.28 µM (inactive)	0.918 µM (active)	1.18 µM (inactive)	0.374 µM (active)	2.25 µM (inactive)	0.242 µM (active)	0.176 µM (active)	6.95 µM (inactive)	0.25 µM (active)
Cc1ccc2c(c1)CC1(C2)Cc2ccc(C)cc2C1=O (stereo not given)	36.9 µM (inactive)	33.3 µM (inactive)	18.5 µM (inactive)	22.1 µM (inactive)	31.9 µM (inactive)	19 µM (inactive)	18.7 µM (inactive)	24.7 µM (inactive)	11.4 µM (inactive)	12.5 µM (inactive)	23.9 µM (inactive)	46.5 µM (inactive)	27.9 µM (inactive)	17.9 µM (inactive)	45.9 µM (inactive)	19.9 µM (inactive)	18.2 µM (inactive)	30.6 µM (inactive)	31.2 µM (inactive)	37 µM (inactive)
CCC(=O)C1(N2CCOCC2)CCN(CCCC(=O)c2ccc(F)cc2)CC1	> 100 µM (inactive)	> 100 µM (inactive)	> 100 µM (inactive)	> 100 µM (inactive)	> 100 µM (inactive)	> 100 µM (inactive)	39.2 µM (inactive)	> 100 µM (inactive)	> 100 µM (inactive)	> 100 µM (inactive)	> 100 µM (inactive)	> 100 µM (inactive)	> 100 µM (inactive)	> 100 µM (inactive)	> 100 µM (inactive)	> 100 µM (inactive)	> 100 µM (inactive)	> 100 µM (inactive)	> 100 µM (inactive)	> 100 µM (inactive)
